Data taken from patent publication US11446352B2, “Compositions and methods for inhibiting tumor-induced immune suppression” (priority 2017, dated 2022).

Tests used:
AB1-HA tumor = conditions: CTX treatment at Day 9; cited from earlier work
[1] = system: Hsp90 chaperoning machine; test: progesterone receptor (PR) refolding assay using reticulocyte lysate (RRL); assay type: biochemical; conditions: protein complex analysis; 10 μM EnnA, 1 μM 17-AAG
Source text: (§1) The first bar indicates 100% folding activity of RRL without inhibitor. PR22 indicates the antibody without PR but with RRL and EnnA. PR represents the antibody (PR22) with PR but without RRL. All other samples have PR22, PR, and RRL without (first bar) or with increased concentration of EnnA. FIGS. 1C-1E are line graphs of cell survival versus EnnA concentration (μM) in breast cancer cell lines Hs578T (FIG. 1C), […] (FIG. 1D) and MDA-MB231 (FIG. 1E) upon treatment with EnnA for 48 and 72 h. […] PR alone (PR), antibody (PR22)+RRL, PR+RRL without inhibitor (RRL), PR+RRL with 1 μM 17-AAG (17AAG) PR+RRL with 10 μM BEAU or EnnA. FIGS. 1G-1I are autoradiographs of Western blots of cytosols from various cell lines treated with 17-AAG (1 μM) or EnnA (3 μM) with antibodies against the specified proteins. FIG. 1J is an autoradiograph showing EnnA causes autophagy in Hs578T and MDA-MB453 cell lines. FIGS. 1K-1N are electron microscopy micrographs showing autophagosomes and reduced mitochondria content in Hs578T cells treated with DMSO or EnnA. FIGS. 1O-1P are fluorescence micrographs showing EnnA causing reduced mitochondria content in Hs578T cells. FIGS. 1Q-1BB are fluorescence micrographs showing mitophagy in Hsp578T cells treated with EnnA as indicated by colocalization of the mitochondria marker Cox4 and the autophagy marker LC3BII.
A cell-free high-throughput screen (HTS) platform based on the progesterone receptor (PR) using reticulocyte lysate (RRL) as a source of molecular chaperones was used to screen 175 natural products (Patwardhan C A, et al., J Biomol Screen (2014)). This assay captures the physiological steps of PR refolding by the Hsp90 chaperoning machine and measures the recovery of its hormone-binding activities after mild heat treatment. It has the ability to identify inhibitors as well as activators of the core components of the Hsp90 chaperoning machine (i.e., Hsp90, Hsp70, Hsp40, Hsp90/Hsp70 organizing protein (HOP), and p23), including compounds that target chaperone complexes as well as individual proteins.

[2] = system: Hs587T and MDA-MB-453 cell lines; test: autophagy, mitochondria content and mitophagy in treated cancer cells; assay type: cell-based, human; conditions: Hs587T and MDA-MB-453 cell lines
Source text: as §1

KB-3-1 cervix carcinoma = conditions: cited from earlier work
[3] = preclinical studies; cited from earlier work

## O=P1(N(CCCl)CCCl)NCCCO1 (centres unmarked) [CTX, Cyclophosphamide]
AB1-HA tumor
  cure rate: 75%

## C=CCNC1=C2C[C@@H](C)C[C@H](OC)[C@H](O)[C@@H](C)/C=C(\C)[C@H](OC(N)=O)[C@@H](OC)/C=C\C=C(/C)C(=O)NC(=CC1=O)C2=O [17-AAG, reference compound]
[1]
  accumulation of Hsp70-rich PR complexes: observed
[2]
  mode of cell death (apoptosis / autophagy): induces apoptosis

## CC(C)[C@H]1C(=O)O[C@H](C(C)C)C(=O)N(C)[C@@H](C(C)C)C(=O)O[C@H](C(C)C)C(=O)N(C)[C@@H](C(C)C)C(=O)O[C@H](C(C)C)C(=O)N1C [Enniatin B]
KB-3-1 cervix carcinoma
  reduction of tumor growth in combination with sorafenib: synergizes with sorafenib
[3]
  anti-angiogenic activity: anti-angiogenic activity
